The source of these data is article PMC12524408 (International Journal of Molecular Sciences, 2025).

The test system of data set [1] is DSS-induced colitis. Conditions: cited from earlier work; for Therapeutic effect in colitis: 25 nmol/kg subcutaneously, previous studies. As for the experimental part: Nevertheless, the 25 nmol/kg dose was selected for further evaluation (Figure 5). […] The in vivo pharmacological studies were conducted by a contract research organization (CRO), LSI Medience Ltd. (Kumamoto, Japan), and were not in an academic setting. Although the studies were conducted professionally, a blinded evaluation was not implemented, which may have introduced bias. Additionally, histological analysis of the colonic tissue was not performed. […] Future pharmacologi ...

Data set [2] is described as follows: Stability (degradation) in human serum. Particulars: pooled human serum, 100 μL in 200 μL (10 mM NaH2PO4 pH 7.1, 100 mM NaCl), 37 °C, 60 min; fluorescence immunoassay; mean, n = 3; read-out: % remaining in human serum after 60 min. Format: in vitro ADME. The source says:
Error bars are shorter than the symbol size.

No end group written: not given here.

In the case of “20 kDa PEGylated AM ({PEG 20 kDa}-YRQSMNNFQGLRSFGCRFGTCTVQKLAHQIYQFTDKDKDNVAPRSKISPQGY; ends and bridges not checked; UniProt P35318 95-146, looked up) [20 k PEG-AM]”, in data set [1], the “Therapeutic effect in colitis” value is on record as “significant therapeutic effects”. For the same molecule, the “Histological analysis of colonic tissue” value in data set [1] (previous study) is recorded as “histological improvements were observed, but were not statistically significant”.
For “60 kDa PEGylated AM ({PEG 60 kDa}-YRQSMNNFQGLRSFGCRFGTCTVQKLAHQIYQFTDKDKDNVAPRSKISPQGY; ends and bridges not checked; UniProt P35318 95-146, looked up) [60 k PEG-AM]”, the “Therapeutic effect in colitis” value in data set [1] is reported as “significant therapeutic effects”.
`CC[C@H](C)[C@H](NC(=O)[C@H](CCC(N)=O)NC(=O)[C@H](Cc1c[nH]cn1)NC(=O)[C@H](C)NC(=O)[C@H](CC(C)C)NC(=O)[C@H](CCCCN)NC(=O)[C@H](CCC(N)=O)NC(=O)[C@@H](NC(=O)[C@@H](NC(=O)[C@@H]1CSSC[C@H](NC(=O)CNC(=O)[C@H](Cc2ccccc2)NC(=O)[C@H](CO)NC(=O)[C@H](CCCNC(=N)N)NC(=O)[C@H](CC(C)C)NC(=O)CNC(=O)[C@H](CCC(N)=O)NC(=O)[C@H](Cc2ccccc2)NC(=O)[C@H](CC(N)=O)NC(=O)[C@H](CC(N)=O)NC(=O)[C@H](CCSC)NC(=O)[C@H](CO)NC(=O)[C@H](CCC(N)=O)NC(=O)[C@H](CCCNC(=N)N)NC(=O)[C@@H](N)Cc2ccc(O)cc2)C(=O)N[C@@H](CCCNC(=N)N)C(=O)N[C@@H](Cc2ccccc2)C(=O)NCC(=O)N[C@@H]([C@@H](C)O)C(=O)N1)[C@@H](C)O)C(C)C)C(=O)N[C@@H](Cc1ccc(O)cc1)C(=O)N[C@@H](CCC(N)=O)C(=O)N[C@@H](Cc1ccccc1)C(=O)N[C@H](C(=O)N[C@@H](CC(=O)O)C(=O)N[C@@H](CCCCN)C(=O)N[C@@H](CC(=O)O)C(=O)N[C@@H](CCCCN)C(=O)N[C@@H](CC(=O)O)C(=O)N[C@@H](CC(N)=O)C(=O)N[C@H](C(=O)N[C@@H](C)C(=O)N1CCC[C@H]1C(=O)N[C@@H](CCCNC(=N)N)C(=O)N[C@@H](CO)C(=O)N[C@@H](CCCCN)C(=O)N[C@H](C(=O)N[C@@H](CO)C(=O)N1CCC[C@H]1C(=O)N[C@@H](CCC(N)=O)C(=O)NCC(=O)N[C@@H](Cc1ccc(O)cc1)C(N)=O)[C@@H](C)CC)C(C)C)[C@@H](C)O` [AM, Adrenomedullin]: the share remaining (as a rule, what is left of the initial amount, in per cent) at 1 h in data set [2] was 9.45%.
